Patent US20220315571A1 (Cytokinetics, Inc., priority 2019, published 2022)
Like-named read-outs stand apart in the source and are kept apart here.

How the values were obtained:
[1] = Competitive slurry experiments between Form I and Form IV; assay type: physicochemical
Excerpt: The results of the competitive slurry experiments are provided below in Table 7.

myocytes = assay: Myocyte contractility assay (fractional shortening, edge detection); assay type: cell-based, Sprague-Dawley rats; conditions: 5 μM, adult rat myocytes, 5 min perfusion, 5 cells tested
Description: Adult male Sprague-Dawley rats were anesthetized and the hearts were quickly excised, rinsed and the ascending aorta was cannulated. Continuous retrograde perfusion was initiated on the hearts at a perfusion pressure of 60 cm H2O. Hearts were first perfused with a nominally Ca^2+-free modified Krebs solution of the following composition: 113 mM NaCl, 4.7 mM KCl, 0.6 mM KH2PO4, 0.6 mM Na2HPO4, 1.2 mM MgSO4, 12 mM NaHCO3, 10 mM KHCO3, 30 mM taurine, 5.5 mM glucose and 10 mM Hepes (all Sigma). This medium is not recirculated and is continually aerated with a 95% O2/5% CO2 mixture. […]
Aliquots of myocytes in Tyrode's buffer were placed in perfusion chambers (series 20 RC-27NE; Warner Instruments) complete with heating platforms. […] Contractility of the myocytes and contraction and relaxation velocities were then recorded using edge detection.
Five or more individual myocytes were tested per compound from two or more different myocyte preparations. […] These average transients were analyzed using the IonWizard software (IonOptix) to determine changes in diastolic length and fractional shortening. Fractional shortening was calculated as: ((resting length−length at peak contraction) divided by the resting length). The percent change in fractional shortening from baseline was calculated as: ((post-dose fractional shortening/basal fractional shortening)*100). […]

[2] = system: Rat Cardiac Contractility; assay: Echocardiography assessment of acute pharmacodynamic effect in rat cardiac contractility; assay type: in vivo, Sprague Dawley rats
Description: Assessment of in vivo cardiac function by echocardiography was performed in male Sprague Dawley rats under isoflurane (1-3%) anesthesia. 2-D M-mode images of the left ventricle were acquired in the parasternal long-axis view before, during, and after administration of compounds by continuous IV infusion or oral gavage. In vivo fractional shortening was determined by M-mode image analysis with the following calculation: ((End diastolic diameter—end systolic diameter)/end diastolic diameter×100). For continuous IV infusion experiments, three pre-dose baseline M-mode images were taken at 1 minute intervals prior to infusion of compound. Compounds were formulated in 50% Propylene Glycol (PG): 16% Captisol: 10% dimethylacetamide (DMA) and delivered via a jugular vein catheter at the rate of 1 mL/kg/h. During infusion, M-mode images were taken at 5 minute intervals. The infusion stopped when fractional shortening reached up to a 60% reduction from baseline. Blood samples were taken to determine the plasma concentration of the compounds. Data was reported as an estimated IC50 value, which is the concentration at which fractional shortening is 50% of the pre-dose baseline contractility.
For oral dosing studies, three pre-dose baseline M-Mode images were taken at 1 minute intervals prior to compound administration. […] Rats were lightly anesthetized for M-Mode echocardiography measurements at select time points over a 24 hour period. Different dose levels were evaluated. The compound effect on cardiac fractional shortening at the highest dose evaluated is presented below as a percent reduction of baseline fractional shortening (=100%).
Concurrent with echocardiography measurements, blood samples were taken to determine the corresponding compound plasma concentration.

[3] = Dynamic Vapor Sorption (DVS); assay type: physicochemical; conditions: 5-90% relative humidity (RH) range, 25° C.
Description: DVS analyses were carried out TA Instruments Q5000 Dynamic Vapor Sorption analyzer. The instrument was calibrated with standard weights and a sodium bromide standard for humidity. Samples were analyzed at 25° C. with a maximum equilibration time of 60 minutes in 10% relative humidity (RH) steps from 5 to 95% RH (adsorption cycle) and from 95 to 5% RH (desorption cycle).
Polymorphic Form I of (R)-N-(5-(5-ethyl-1,2,4-oxadiazol-3-yl)-2,3-dihydro-1H-inden-1-yl)-1-methyl-1H-pyrazole-4-carboxamide was analyzed by XRPD, DSC, TGA, and DVS. […] As shown in the TGA graph, a weight loss of 0.2% below 200° C., was observed.

[4] = Polymorph screening, heat/humidity exposure of Form I (XRPD); assay type: physicochemical
Description: Polymorphic Form I of (R)-N-(5-(5-ethyl-1,2,4-oxadiazol-3-yl)-2,3-dihydro-1H-inden-1-yl)-1-methyl-1H-pyrazole-4-carboxamide was mixed with various solvents under various conditions. Samples generated were analyzed by XRPD.

CCc1nc(-c2ccc3c(c2)CC[C@H]3NC(=O)c2cnn(C)c2)no1 [Forms I and IV, (R)-N-(5-(5-ethyl-1,2,4-oxadiazol-3-yl)-2,3-dihydro-1H-inden-1-yl)-1-methyl-1H-pyrazole-4-carboxamide]
XRPD form after competitive slurry ([1]; ACN, 2 ° C.): Form IV | XRPD form after competitive slurry ([1]; ACN, 25 ° C.): Form IV | XRPD form after competitive slurry ([1]; ACN, 60 ° C.): Form IV | XRPD form after competitive slurry ([1]; acetone, 2 ° C.): Form IV | XRPD form after competitive slurry ([1]; acetone, 25 ° C.): Form IV | XRPD form after competitive slurry ([1]; acetone, 60 ° C.): Form IV

CCc1nc(-c2ccc3c(c2)CC[C@H]3NC(=O)c2cnn(C)c2)no1 [Form IV, (R)-N-(5-(5-ethyl-1,2,4-oxadiazol-3-yl)-2,3-dihydro-1H-inden-1-yl)-1-methyl-1H-pyrazole-4-carboxamide]
relative stability of forms in competitive slurry ([1]; temperature range 2-60° C.): more stable than Form I

CCc1nc(-c2ccc3c(c2)CC[C@H]3NC(=O)c2cnn(C)c2)no1 [(R)-N-(5-(5-ethyl-1,2,4-oxadiazol-3-yl)-2,3-dihydro-1H-inden-1-yl)-1-methyl-1H-pyrazole-4-carboxamide]
% FS (% reduction from baseline) ± SEM (myocytes): 67.4 ± −5.8% | FS (% reduction from baseline) at 1-2 h post dose (Mean ± S.D.) ([2]; 2 mg/kg single dose by oral gavage, rat, 1-2 h post dose): 43 ± 9% | FS (% reduction from baseline) at 4 h post dose (Mean ± S.D.) ([2]; 2 mg/kg single dose by oral gavage, rat, 4 h post dose): 31 ± 9% | IC50 ([2]; continuous IV infusion, rats under isoflurane, read-out: estimated IC50 (plasma concentration at which fractional shortening is 50% of pre-dose baseline contractility), Mean±S.D.): 7.2 ± 0.2 µM | estimated IC10 (plasma concentration, fractional shortening) ([2]; oral dosing studies, rat): 0.8 µM | IC50 ([2]; oral dosing studies, rat, read-out: estimated IC50 (plasma concentration, fractional shortening)): 7.9 µM

CCc1nc(-c2ccc3c(c2)CC[C@H]3NC(=O)c2cnn(C)c2)no1 [Form I, (R)-N-(5-(5-ethyl-1,2,4-oxadiazol-3-yl)-2,3-dihydro-1H-inden-1-yl)-1-methyl-1H-pyrazole-4-carboxamide]
moisture uptake as determined by DVS [3]: 0.60 % w/w | XRPD form after heat/humidity exposure ([4]; none, RT, 0% RH): Form I | XRPD form after heat/humidity exposure ([4]; water vapor, 40° C., 75% RH): Form I | XRPD form after heat/humidity exposure ([4]; water vapor, RT, 59% RH): Form I | XRPD form after heat/humidity exposure ([4]; water vapor, RT, 75% RH): Form I | XRPD form after heat/humidity exposure ([4]; water vapor, RT, 97% RH): Form I
